According to ChEMBL document CHEMBL3045397, “Synthesis and anticonvulsant activity of some new series of pyrrole derivatives” (Med Chem Res, 2012):
Activity calls are given as the source filed them. The rule behind the calls is not given here.

Tests used:
[1] = test system: Rattus norvegicus; assay: Anticonvulsant activity in SwissRattus norvegicus albino (rat) assessed as protection against pentamethylene tetrazole-induced seizures at 10 mg/kg, ip administered for 15 min prior to pentamethylene tetrazole induction relative to placebo; type: functional
[2] = test system: Rattus norvegicus; assay: Anticonvulsant activity in SwissRattus norvegicus albino (rat) assessed as protection against pentamethylene tetrazole-induced seizures at 5 mg/kg, ip administered for 15 min prior to pentamethylene tetrazole induction relative to placebo; type: functional
[3] = test system: Rattus norvegicus; assay: Toxicity in SwissRattus norvegicus albino (rat) up to 10 mg/kg, ip measured for 24 hr; type: organism-based, Swiss albino; parameters: dose 10 mg/kg, route intraperitoneal; settings: in vivo

Compound	Activity ([1]; Swiss albino)	Activity ([2]; Swiss albino)	Activity [3]	Activity ([1]; route intraperitoneal)	Activity ([2]; route intraperitoneal)
CCOC(=O)c1[nH]c(/C=C/c2ccc([N+](=O)[O-])cc2)c(C(=O)OCC)c1C	inactive	inactive			
Cc1c(C(=O)NNC(N)=S)[nH]c(/C=C/c2ccc([N+](=O)[O-])cc2)c1C(=O)NNC(N)=S			Non-toxic	0%	0%
Cc1c(C(=O)NNC(N)=S)[nH]c(/C=C/c2ccc(O)cc2)c1C(=O)NNC(N)=S			Non-toxic	0%	0%
Cc1c(C(=O)NNC(N)=S)[nH]c(/C=C/c2ccccc2)c1C(=O)NNC(N)=S			Non-toxic	66%	33%
O=C1NC(=O)C(c2ccccc2)(c2ccccc2)N1 [PHENYTOIN]			Non-toxic	98%	
CCOC(=O)c1[nH]c(/C=C/c2ccc(N(C)C)cc2)c(C(=O)OCC)c1C	inactive	inactive			
COc1ccc(/C=C/c2[nH]c(C(=O)NNC(N)=S)c(C)c2C(=O)NNC(N)=S)cc1			Non-toxic	0%	0%
CCOC(=O)c1[nH]c(/C=C/c2ccccc2)c(C(=O)OCC)c1C	inactive	inactive			
CCOC(=O)c1[nH]c(/C=C/c2ccc(Cl)cc2)c(C(=O)OCC)c1C	inactive	inactive			
CCOC(=O)c1[nH]c(/C=C/c2ccc(O)cc2)c(C(=O)OCC)c1C	inactive	inactive			
Cc1c(C(=O)NNC(N)=S)[nH]c(/C=C/c2ccc(N(C)C)cc2)c1C(=O)NNC(N)=S			Non-toxic	46%	21%
CCOC(=O)c1[nH]c(/C=C/c2ccc(OC)cc2)c(C(=O)OCC)c1C	inactive	inactive			
Cc1c(C(=O)NNC(N)=S)[nH]c(/C=C/c2ccc(Cl)cc2)c1C(=O)NNC(N)=S			Non-toxic	48%	19%
